Results as given in PubChem BioAssay (NCI).
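Compound exposure: 48 hours, 5 concentrations, 96-well plates. GI50 = concentration required for 50% inhibition of growth. TGI denotes the concentration required for complete inhibition of growth.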

Experiments:
Test in all cases: DTP human tumour cell line panel, 48 h
UO-31 renal = tested on: UO-31 renal
CCRF-CEM leukemia = tested on: CCRF-CEM leukemia
COLO 205 colon = tested on: COLO 205 colon
NCI-H460 lung = tested on: NCI-H460 lung
NCI/ADR-RES ovarian = tested on: NCI/ADR-RES ovarian
NCI-H23 lung = tested on: NCI-H23 lung
HOP-62 NSCLC = tested on: HOP-62 NSCLC
ACHN renal = tested on: ACHN renal
SR leukemia = tested on: SR leukemia
K-562 leukemia = tested on: K-562 leukemia

Compound | TGI (UO-31 renal) [µM] | TGI (CCRF-CEM leukemia) [µM] | TGI (COLO 205 colon) [µM] | TGI (NCI-H460 lung) [µM] | TGI (NCI/ADR-RES ovarian) [µM] | TGI (NCI-H23 lung) [µM] | TGI (HOP-62 NSCLC) [µM] | TGI (ACHN renal) [µM] | TGI (SR leukemia) [µM] | TGI (K-562 leukemia) [µM] | GI50 (UO-31 renal) [nM] | GI50 (CCRF-CEM leukemia) [nM] | GI50 (NCI/ADR-RES ovarian) [nM] | GI50 (HOP-62 NSCLC) [µM] | GI50 (ACHN renal) [nM] | GI50 (SR leukemia) [nM]
O=C(Nc1ccccc1)N(C1=NCC(CI)S1)c1ccc(F)c(F)c1 (stereo not drawn) | > 100 | 75.9 | > 100 | > 100 | > 100 | > 100 | > 100 | > 100 | > 100 | > 100 | – | – | – | – | – | –
Cc1ccc(S(=O)(=O)NC(=O)Nc2nnc(S(N)(=O)=O)s2)cc1 | > 100 | > 100 | > 100 | > 100 | > 100 | > 100 | > 100 | > 100 | > 100 | > 100 | – | – | – | – | – | –
S=C1c2ccc(Cl)cc2-n2cnnc2C2CSCN12 (stereo not drawn) | > 100 | > 100 | > 100 | > 100 | > 100 | – | > 100 | > 100 | > 100 | 27.7 | – | – | – | – | – | –
CC(=O)O[C@H]1CC(C)(C)C(=C=C/C(C)=C/C=C/C=C/C=C(C)/C=C2C=C(/C=C/[C@@]34O[C@]3(C)C[C@@H](O)CC4(C)C)C(=O)O/2)[C@](C)(O)C1 | 30.7 | 10 | > 100 | > 100 | 34.5 | 18.1 | 32 | 48.7 | 74.8 | 57.2 | – | – | – | – | – | –
COC(=O)C1=C(O)C(C(=O)OC)C2CC(=O)CC1C2(C)C (stereo not drawn) | > 100 | > 100 | > 100 | > 100 | > 100 | > 100 | > 100 | > 100 | > 100 | > 100 | – | – | – | – | – | –
O=C(/C=C(/C=C/c1ccc2[nH]ccc2c1)OB(F)F)/C=C/c1ccc2[nH]ccc2c1 | 5.55 | > 100 | – | – | > 100 | – | > 100 | 7.57 | > 100 | – | 1350 | 423 | 2700 | 3.38 | 2520 | 451
CCOC(=O)c1c(C)n(Cc2ccc(Cl)cc2Cl)c2c1cc(O)c1[nH]c3c(c12)CCCC3 | 51.3 | 77.1 | > 100 | 89.9 | 43.4 | 77.6 | 93.7 | 61.2 | 0.379 | – | – | – | – | – | – | –
CC(C)(C)c1ccccc1N1C(=O)c2ccc3c4c(ccc(c24)C1=O)N(c1ccccc1C(C)(C)C)C3=O | > 100 | > 100 | > 100 | > 100 | > 100 | > 100 | > 100 | > 100 | > 100 | > 100 | – | – | – | – | – | –
O=C(Nc1ccccc1F)c1cc2ccc(O)cc2oc1=Nc1cccc(F)c1 | 29.3 | 15.3 | 77.3 | 57.3 | 43 | 5.36 | 38.6 | 29.5 | 49.2 | 79.3 | – | – | – | – | – | –
Cc1cc(C)nc(NS(=O)(=O)c2ccc(NC(=O)c3c4ccccc4nc4ccccc34)cc2)n1 | > 100 | > 100 | > 100 | > 100 | > 100 | > 100 | > 100 | > 100 | > 100 | > 100 | – | – | – | – | – | –
C[C@H](c1ccccc1)N1C(=O)[C@@H](O)[C@H]1[C@H](CO)OCc1ccccc1 | > 100 | > 100 | > 100 | – | > 100 | > 100 | > 100 | > 100 | > 100 | > 100 | – | – | – | – | – | –
COc1cc2c(c(O)c1O)C(=O)C1CCC(=O)N1C2c1cccc2ccccc12 (stereo not drawn) | > 50 | > 50 | > 50 | > 50 | > 50 | > 50 | > 50 | > 50 | > 50 | > 50 | – | – | – | – | – | –
COc1ccc(N2C(=O)C3c4[nH]c5ccc(OCc6ccccc6)cc5c4C4CCC(c5ccccc5)CC4C3C2=O)cc1 (stereo not drawn) | > 96.9 | 26.8 | > 100 | 12.3 | > 100 | 32.4 | 10.2 | 41.5 | 7.14 | 12 | – | – | – | – | – | –
Cc1ccc2nc(SCC(=O)N=Nc3c(O)[nH]c4ccccc34)n(-c3ccccc3)c(=O)c2c1 | 12.9 | 34.5 | 33 | 29 | 26.1 | 33.1 | 24.6 | 26.7 | 36.7 | 61.9 | – | – | – | – | – | –
CC(C)/C(Cl)=N/OC(=O)Nc1ccc(Br)cc1 | 23.8 | 2.93 | 3.43 | 30.7 | 27.8 | 26.5 | 31.7 | 3.77 | 4.5 | – | – | – | – | – | – | –
O=C(O)CN(CC(=O)O)C1CCCCC1N1CC(=O)OC(=O)C1 (stereo not drawn) | > 100 | > 100 | > 100 | > 100 | > 100 | > 100 | > 100 | > 100 | > 100 | > 100 | – | – | – | – | – | –
COc1cc(/C=C2\C(=O)N(c3cccc([N+](=O)[O-])c3)C(c3ccccc3)S2(=O)=O)cc(OC)c1OC (stereo not drawn) | > 100 | > 100 | > 100 | > 100 | > 100 | > 100 | > 100 | > 100 | > 100 | > 100 | – | – | – | – | – | –
CC(=O)Nc1ccc2c(C)c3c(nc2n1)[nH]c1ccccc13 | > 100 | > 100 | 32 | 49 | 62.1 | 91.1 | > 100 | 59.6 | 64.9 | > 100 | – | – | – | – | – | –
OC1[C@@H]2[C@@H](O)CCCN2C[C@@H](O)[C@H]1O (stereo partly drawn) | > 100 | > 100 | > 100 | > 100 | > 100 | > 100 | > 100 | > 100 | > 100 | > 100 | – | – | – | – | – | –
COC(=O)[C@H]1C=NN[C@@H]1C(=O)N1[C@H]2CC3CC[C@@]2(CS1(=O)=O)C3(C)C | > 100 | > 100 | > 100 | > 100 | > 100 | > 100 | > 100 | > 100 | > 100 | > 100 | – | – | – | – | – | –
